Experimental data: PMC12920416, “Preclinical development of [^18F]TAAR1-2203 as a PET radioligand for imaging TAAR1 expression and receptor occupancy” (European Journal of Nuclear Medicine and Molecular Imaging, 2025)

Tests used:
[1] = Distribution coefficient (LogD), shake-flask method; assay type: physicochemical; settings: n-octanol/PBS pH 7.4, n = 3, read-out: LogD7.4
Procedure: The distribution coefficient (LogD) was determined using the shake-flask method. Briefly, 500 µCi (18.5 MBq) of [^18F]TAAR1-2203 was added to a presaturated mixture of PBS (1.3 mL, pH 7.4) and n-octanol (3 mL). The mixture was vortexed for 5 min, after which 500 µL aliquots (n = 3) were transferred into separate tubes and centrifuged at 3500–4000 rpm for 5 min. Following centrifugation, 50 µL of the n-octanol phase and 500 µL of the aqueous phase were carefully sampled and transferred into pre-weighed gamma counter tubes. After weighing, radioactivity in each phase was quantified using a Packard Cobra 5002/5003 gamma counter. The LogD value at pH 7.4 was calculated based on the measured weights and the radioactivity distribution between the organic and aqueous phases, as previously reported.

[2] = Stability in formulation, saline and phosphate buffer; assay type: physicochemical; settings: up to 4 h at ambient temperature
Procedure: […] Analytical HPLC was performed using an XBridge C18 column (3.5 μm, 4.6 mm × 150 mm) under isocratic conditions with a mobile phase of MeCN/H2O (35:65, v/v) containing 0.1% triethylamine (TEA) at a flow rate of 1.0 mL/min.

[3] = Serum stability, mouse serum; assay type: in vitro ADME; settings: 60 min, 37 °C
Procedure: (§1) The stability of [^18F]TAAR1-2203 was assessed in mouse, rat, NHP, and human serum. Aliquots (400 µL) of serum were preincubated at 37 °C for 5 min, followed by the addition of [^18F]TAAR1-2203 (20 µL, 300 µCi/11.1 MBq). After 60 min, 200 µL of each sample was collected, quenched with ice-cold MeCN (200 µL), centrifuged at 10,000 g for 5 min, and analyzed by radio-HPLC (XBridge C18 column, 3.5 μm, 4.6 mm × 150 mm; CH3CN/H2O 35:65 with 0.1% TEA; flow rate 1.0 mL/min). Experiments in PBS served as negative controls, and benfluorex hydrochloride was used as a positive control.

[4] = Serum stability, NHP serum; assay type: in vitro ADME, non-human primate; settings: 60 min, 37 °C
Procedure: as §1

[5] = Microsomal stability, mouse liver microsomes; assay type: in vitro ADME; settings: after 60 min, 37 °C, printed as rodent microsomes
Procedure: (§2) Microsomal stability of [^18F]TAAR1-2203 was evaluated using mouse, rat, NHP, and human liver microsomes. Potassium phosphate buffer (340 µL, 0.5 M, pH 7.4) was combined with NADPH regenerating solution (40 µL, 10 mM). Radiotracer solution (10 µL, 150 µCi, 5.5 MBq) was added, and the mixture was preincubated at 37 °C for 5 min. Liver microsomes (20 µL) were subsequently added. Incubations were carried out at 37 °C with gentle shaking. At 30 and 60 min, 200 µL aliquots were quenched with ice-cold MeCN (200 µL), centrifuged at 10,000 g for 5 min, and analyzed using an AR-2000 radio-TLC imaging scanner (Eckert & Ziegler).

[6] = Microsomal stability, human liver microsomes; assay type: in vitro ADME; settings: after 60 min, 37 °C
Procedure: as §2

[7] = Plasma protein binding of tracer, mouse plasma; assay type: in vitro ADME; settings: radiotracer, 10 min incubation, ultrafiltration, read-out: Free fraction in mouse plasma
Procedure: (§3) Plasma protein binding of [^18F]TAAR1-2203 was determined in mouse, rat, NHP, and human plasma. Plasma samples (150 µL, n = 3) were preincubated at 37 °C for 5 min before addition of [^18F]TAAR1-2203 (10 µCi, 0.37 MBq). After 10 min of incubation, 300 µL of ice-cold PBS were added. Samples (300 µL) were then transferred onto Amicon® centrifugal filter units (10 kDa cut-off) and centrifuged at 2100 g for 15 min at 4 °C. Filtrates were washed with 300 µL PBS and centrifuged again. Radioactivity in the filtrate and protein-bound fractions was measured using a Packard Cobra 5002/5003 gamma counter.

[8] = Plasma protein binding of tracer, human plasma; assay type: in vitro ADME; settings: radiotracer, 10 min incubation, ultrafiltration, read-out: Free fraction in human plasma
Procedure: as §3

TAAR1 [9] = target: T1, TAAR1 (Rattus norvegicus, UniProt Q923Y9); experiment: In vitro autoradiography, rat pancreas and kidney sections; assay type: binding, Sprague Dawley rats; settings: tracer 5–8 nM; blockade with RO5333943 or RO5425754 at 10 µM
T1 construct: peripheral organs that express endogenous TAAR1; tissue Charles River; host or cells: rat pancreas, kidney
T1 sequence (Q923Y9 whole entry): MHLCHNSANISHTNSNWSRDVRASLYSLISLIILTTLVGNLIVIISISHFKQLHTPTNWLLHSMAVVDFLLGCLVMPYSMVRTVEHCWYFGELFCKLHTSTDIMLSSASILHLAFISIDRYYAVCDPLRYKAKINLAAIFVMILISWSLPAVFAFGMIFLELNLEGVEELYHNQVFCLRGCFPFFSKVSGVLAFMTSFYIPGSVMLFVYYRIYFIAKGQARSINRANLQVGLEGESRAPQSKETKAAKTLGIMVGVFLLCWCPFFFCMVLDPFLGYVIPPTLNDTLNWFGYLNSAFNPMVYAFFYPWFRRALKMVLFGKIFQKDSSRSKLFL
Procedure: In vitro autoradiography experiments with [^18F]TAAR1-2203 were conducted on mouse and rat pancreas, kidney and brain tissue sections, respectively. Tissue Sect. (20 μm) were thawed on ice for 10 min and preincubated in assay buffer (50 mM Tris, pH 7.4) for 10 min. Subsequently, sections were incubated with [^18F]TAAR1-2203 for 40 min at ambient temperature. For blocking studies, structurally distinct TAAR1 agonists, RO5333943 or RO5425754, were added in excess to the assay buffer at a final concentration of 10 µM. After incubation, sections were washed in assay buffer for 2 min on ice and dipped briefly in water (2 × 5 s), followed by drying and exposure to a phosphor imager plate for 60 min. Imager plates were scanned on an Amersham Typhoon analyzer system, and images were analyzed using ImageQuant TL 8.1, as previously reported.

TAAR1 [10] = target: T2, TAAR1 (Mus musculus, UniProt Q923Y8); experiment: Dynamic PET imaging, baseline vs blockade; assay type: in vivo, CD1 mice
T2 construct: peripheral organs that express endogenous TAAR1; tissue Charles River (wild-type); F. Hoffmann-La Roche Ltd. (TAAR1 knock-out and matched controls); host or cells: mouse pancreas, kidney, liver, brain
T2 sequence (Q923Y8 whole entry): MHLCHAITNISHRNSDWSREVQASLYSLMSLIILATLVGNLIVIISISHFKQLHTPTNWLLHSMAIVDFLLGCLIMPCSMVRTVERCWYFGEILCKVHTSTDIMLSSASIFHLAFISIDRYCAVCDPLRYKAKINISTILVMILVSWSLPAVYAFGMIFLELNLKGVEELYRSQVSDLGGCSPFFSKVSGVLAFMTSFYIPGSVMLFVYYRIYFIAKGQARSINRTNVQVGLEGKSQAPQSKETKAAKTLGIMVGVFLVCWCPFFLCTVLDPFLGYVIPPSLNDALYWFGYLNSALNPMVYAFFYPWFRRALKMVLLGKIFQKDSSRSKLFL
Procedure: Dynamic PET imaging was performed for 60 min in female C57BL/6 mice, as well as in TAAR1 knock-out mice and respective controls, under 1–2% (v/v) isoflurane anaesthesia as previously reported. [^18F]TAAR1-2203 (1.5 MBq in 100 µL saline) was administered via tail vein injection. For blocking studies, TAAR1 agonist RO5425754 (4 mg/kg) was injected 5 min prior to radiotracer administration. Dynamic PET scans were acquired using a G8 PET/CT scanner (Sofie Biosciences, Culver, CA, USA) and analyzed with PMOD software (PMOD Technologies Ltd., Zurich, Switzerland). Radioactivity was decay-corrected and expressed as standardized uptake values (SUVs), normalized to body weight and injected dose.

[11] = PET, blockade with RO5425754 4 mg/kg

Cc1c([18F])cccc1[C@H]1COC(N)=N1 [[^18F]TAAR1-2203]
logD [1]: 1.64 ± 0.01
Stability in formulation [2]: no detectable degradation
Intact parent tracer in mouse serum [3]: > 99%
Intact parent tracer in NHP serum [4]: > 99%
Intact tracer in mouse liver microsomes [5]: > 98%
Intact tracer in human liver microsomes [6]: > 99%
fraction unbound at 10 min, 2.47 MBq/mL [7]: ~0.6
fraction unbound at 10 min [8]: ~0.6
Reduction of tracer binding, rat kidney (TAAR1 [9]): greater than 70%
Reduction of tracer binding, rat pancreas (TAAR1 [9]): more than 50%
Specific binding in the CNS (TAAR1 [10]; PET imaging and in vitro autoradiography): no specific TAAR1 binding was observed
Tracer uptake in kidney (AUC 0–60 min), blockade vs baseline (TAAR1 [10]; [11]): significant reduction
Tracer uptake in pancreas (AUC 0–60 min), blockade vs baseline (TAAR1 [10]; [11]): significant reduction
